We go through 3 compounds from PMC11036650, “Different Modes of Mechanism of Gamma-Mangostin and Alpha-Mangostin to Inhibit Cell Migration of Triple-Negative Breast Cancer Cells Concerning CXCR4 Downregulation and ROS Generation” (Iranian Journal of Pharmaceutical Research : IJPR, 2023).

What all share (assay type): cell-based, human
The subject of data set [1] is MDA-MB-231 cells. Description: Intracellular ROS level measurement (DCFDA, flow cytometry). Particulars: for ROS accumulation: 10 µM. As for the experimental part:
The MDA-MB-231 cells were collected in a buffer with 10% FBS in phosphate-buffered saline (PBS) and transferred in a sterile light-blocking microtube before being stained with 20 µM of 2’,7’-dichlorofluorescein diacetate (DCFDA) (Sigma #D6883, USA) and incubated for 30 minutes. Later, γ-mangostin and α-mangostin were added to the cell suspensions and incubated in a 37 °C incubator (with 5% CO2) before analyzing by a flow cytometer (Calibur) at indicated times (4, 8, 18, and 24 hours). 2’,7’-dichlorofluorescein diacetate reacted with the hydroxyl radicals (·OH) and transformed into fluorescent 2,7-dichlorofluorescein (DCF). The fluorescence intensity of DCF based on 5,000 cells per gate was calculated using the flow cytometer ([29], [30]). In a separate experiment, the cells already stained with DCFDA were treated with 5 mM N-acetyl-L-cysteine (NAC) (Wako #017-05131, Japan) and incubated for an hour before the treatment with γ-mangostin and α-mangostin for the next 24 hours, and the ROS level was subsequently measured. The assay was carried out in triplicate.

Data set [2] concerns LPHN2. Description: qRT-PCR gene expression, LPHN2. The conditions noted are these: MDA-MB-231 cells, RT-qPCR. The procedure:
(§1) Total ribonucleic acid (RNA) upon treatment with γ-mangostin and α-mangostin was collected from cells using Sepasol (Nacalai Tesque, Japan). The reverse transcription of complementary deoxyribonucleic acid (cDNA) was performed using ReverTra Ace qPCR RT Kit (Toyobo, Japan), which included DNAse I to remove genomic DNA. Quantitative real-time reverse-transcription polymerase chain reaction (qRT-PCR) was performed using the Thunderbird SYBR qPCR Mix (Toyobo, Japan) on a Real-Time PCR System Light Cycler 96 (Roche, USA). Rac, Farp, CXCR4 ([28]), and latrophilin-2 (LPHN2) primers were used, and GAPDH was detected as the internal control.
In general terms: Real-time PCR tracks product formation cycle by cycle.

In data set [3] the test system is MDA-MB-231 cells. Description: Migration assay (wound healing). The conditions noted are these: 10 μM, 24 and 42 hours, mitomycin C pretreatment, P < 0.05. As for the experimental part:
A culture-insert 2 well (cat #ib81176) was placed in the well. Then, 5 × 10^4 cells were seeded on each side of the insert. After 24 hours, the medium was discarded and replaced with the fresh medium containing 0.5% FBS, and the cells were cultured for another 18 hours. The next day, the medium was replaced with 10 µg/mL mitomycin C (Wako #139-18711, Japan) and cultured for 2 hours before treatment with 10 μM γ-mangostin and 10 μM α-mangostin. Right after the treatment, the cells were observed under the microscope at 0 hour. At the indicated times (24 and 42 hours), the cell-free area from three parts (i.e., upper, center, and lower scratch) was measured by analyzing the gap closure rate using ImageJ software ([27]).

Data set [4] can be described thus: Cell viability assay (CCK-8). Particulars: human. As for the experimental part:
(§2) The MDA-MB-231 breast cancer cells were cultured in an L-15 medium, enriched with 15% fetal bovine serum (FBS) (Gibco, USA) and 1% penicillin-streptomycin (Gibco, USA), and incubated in CO2-free 37°C incubator.
(§3) The compounds γ-mangostin (#M6824) and α-mangostin (#M3824) were purchased from Sigma-Aldrich (USA). A suspension of cells (20,000 cells/well in 100 μL) was cultured in a 96-well plate. After an initial 24-hour incubation, γ-mangostin or α-mangostin of varying concentrations (1 - 100 μM) was added to the plate, followed by another 24-hour incubation. A solution of Cell Counting Kit-8 (CCK-8) (Dojindo #347-07621, Japan) was added to each well, and the plate was incubated for 2 hours. The absorbance was subsequently read at 450 nm using a microplate reader ([26]). The assay was carried out in triplicate.

For data set [5], the system named is MDA-MB-231 cells. Description: Cell viability assay (CCK-8). Particulars: MDA-MB-231 cells, 24 hours, CCK-8 assay, triplicate ± SD. The procedure: as §2, §3
Data set [6] concerns CXCR4. Nature of the data set: qRT-PCR gene expression, CXCR4. Particulars: MDA-MB-231 cells, RT-qPCR. The procedure:
as §1

Data set [7] concerns Farp. Description: qRT-PCR gene expression, Farp. Particulars: MDA-MB-231 cells, RT-qPCR. The procedure: as §1
Where [8] appears, read: longer incubation up to 24 hours, P < 0.0001.

The structures appear in SMILES notation. Like-named read-outs stand apart in the source and are kept apart here.

Broadly, the viability is a per cent measure of how many cells are alive, often set against a control. In general, IC50 refers to the midpoint of a concentration-inhibition curve. A lower IC50 goes with higher potency. In the case of `COc1c(O)cc2oc3cc(O)c(CC=C(C)C)c(O)c3c(=O)c2c1CC=C(C)C` [α-mangostin], the ROS accumulation result in data set [1] (after 4 hours) was “decreased”; in data set [1] (setting [8]), “started to rise”. For the same compound, in data set [2], the “expression of LPHN2 (mRNA, normalized with GAPDH)” value is given as “did not alter”. Further, in data set [3], the “MDA-MB-231 cell migration (gap closure)” value is reported as “a similar outcome was observed”. The viability at 24 h, 10 µM in data set [4] (MDA-MB-231 breast cancer cells, MDA-MB-231 cells, 10 µM concentration, read-out: cell viability) was found to be 80%. The same compound showed a viability at 24 h in data set [4] (MDA-MB-231 breast cancer cells, MDA-MB-231 cells, concentration below 10 µM, 24 hours) of 80 to 90%. Also, in data set [5] (Homo sapiens), it took 20 µM to reach half-maximal inhibition (IC50). For the same compound, the “expression of CXCR4 (mRNA, normalized with GAPDH)” value in data set [6] is “did not alter”. Moreover, the “expression of Farp (mRNA, normalized with GAPDH)” value in data set [7] is “did not alter”.

For `CC(=O)N[C@@H](CS)C(=O)O` [NAC, N-acetyl-L-cysteine, reference compound], the “amount of ROS induced by γ-mangostin and α-mangostin” value in data set [1] (5 mM NAC for 1 hour before 10 µM mangostin for 24 hours, P < 0.0001) is “reduced”.

On to `CC(C)=CCc1c(O)cc2oc3cc(O)c(O)c(CC=C(C)C)c3c(=O)c2c1O` [γ-mangostin], for which the ROS accumulation result in data set [1] (after 4 hours) is listed as “decreased”; in data set [1] (setting [8]), “started to rise”. Besides, in data set [2], the “expression of LPHN2 (mRNA, normalized with GAPDH)” value is “downregulated”. For the same compound, the “MDA-MB-231 cell migration (gap closure)” value in data set [3] is “effectively inhibited MDA-MB-231 cell migration”. Besides, in data set [4], the viability at 24 h, 10 µM amounted to 80%. In addition, the IC50 in data set [5] (Homo sapiens, MDA-MB-231, 24 h) was 25 µM; in data set [5] it was 18 ± 5 µM. Further, in data set [6], the “expression of CXCR4 (mRNA, normalized with GAPDH)” value is listed as “downregulated”. Moreover, in data set [7], the “expression of Farp (mRNA, normalized with GAPDH)” value is given as “downregulated”.
